Experimental data published in patent US20160058743A1, “METHODS FOR TREATING SENSORIMOTOR IMPAIRMENTS ASSOCIATED WITH CERTAIN TYPES OF STROKE USING AMINOPYRIDINES” (ACORDA THERAPEUTICS, INC., priority 2013, published 2016).
“Also recorded” adds a separate entry of the source.

How the values were obtained:
[1] = test system: rats with middle cerebral artery occlusion (MCAO); experiment: Body swing test after MCAO; assay type: in vivo, Sprague Dawley rats; settings: for Body Swing Test (% right Swing): Group 3 mean, phase 2
From the text: In particular, the MCAO model in Sprague Dawley rats that was utilized in the experiments presented below mimics the conditions in human ischemic stroke. In this model, focal cerebral infarcts were made by permanent occlusion of the proximal right middle cerebral artery (MCA) using a modification of the method of Tamura et al. (No To Shinkei 1986; 38:747-51). Briefly, the temporalis muscle was bisected and reflected through an incision made midway between the eye and the ear canal. The proximal MCA was exposed through a subtemporal craniectomy without removing the zygomatic arch and without transecting the facial nerve.
In this experiment, Sprague Dawley rats were anesthetized, subjected to a surgery resulting in middle cerebral artery occlusion (MCAO), treated with and without 4-aminopyridine and behavioral assessments were performed as described below. Treatment was initiated at 4 weeks after stroke.
Dosing and Treatment: Rats were treated in accordance with the dosing schedule shown in Tables 2A, 2B, 3 and FIG. 2, with each Phase being a two week period of time. A solution of 4-AP was used in this experiment. Dosing was started at 4 weeks after ischemic event. 4-aminopyridine was dissolved in water for injection (WFI, Cellgro) and sterile filtered. Final concentrations of 0.315 mg/mL or 1.0 mg/mL of 4-aminopyridine were delivered at 2 mL/kg by gastric gavage, resulting in final doses of 0.63 mg/kg and 2 mg/kg respectively. Vehicle control treatment was WFI delivered at 2 mL/kg by gastric gavage. This study was divided into three treatment phases (1-3) with each randomized cohort of animals receiving a different dose level during each of the treatment phases. Starting on day 30 after MCAO (Day 30, start of phase 1), the animals received gavage dosing of solutions (2 mL/kg) approximately 12 hours apart, for a total of five doses. The same schedule was repeated with different treatment on Day 44 and Day 58 for phase 2 and 3 of the study, respectively. Animals were not treated during the 10 days between phases (washout period).
Treatment groups: Dosing was started 4 weeks after MCAO surgery. During these 4 weeks, weekly behavioral assessments, as defined below, were performed. Two dose levels of 4-AP plus vehicle control were assessed, with treatment starting at 4 weeks after ischemic event. All dosing was via gastric gavage, volume not to exceed 2 mL/kg. Animals were given the first dose and behavioral assessments were performed starting 60 minutes after dosing. […] Following the final behavioral assessment, drug was withdrawn for 10 or 11 days, behavior was re-assessed, and then animals were re-challenged with a cross-over treatment (Phase 2 of Table 2B) as described in Tables 2A, 2B and 3, followed by the same behavioral testing and dosing regimen. […]

[2] = test system: rats with middle cerebral artery occlusion (MCAO); experiment: Infarct volume measurement (H&E staining); assay type: in vivo, Sprague Dawley rats; settings: % of contralateral hemisphere; for Mean infarct volume (%): Example 2 crossover, Day 63
Procedure: Euthanasia and post-mortem processing: Infarct Volume analysis. After the last behavioral assessment, rats were anesthetized deeply with ketamine/xylazine (100 mg/kg ketamine, 10 mg/kg xylazine, i.p.) and perfused transcardially with normal saline (with heparin 2 unit/ml) followed by 4% paraformaldehyde or formalin on Day 63. Brains were harvested and processed for histological assessment. A subset of 10 brains per group was processed for infarct volume measurement (H&E staining).
Infarct measurement: Brains were embedded in paraffin and 5 micron thick coronal sections were cut using a microtome. Sections were stained with hematoxylin and eosin (H&E), using standard methods. Seven coronal sections (+4.7, +2.7, +0.7, −1.3, −3.3, −5.3 and −7.3, compared to bregma respectively) from each brain were photographed by a digital camera, and the infarct area on each slice was determined by NIH Image (Image J) using the “indirect method” (area of the intact contralateral [left] hemisphere−area of intact regions of the ipsilateral [right] hemisphere) to correct for brain edema. Infarct areas were then summed among slices and multiplied by slice thickness (the distance between sections) to give total infarct volume, which was expressed as a percentage of intact contralateral hemispheric volume.
Euthanasia and post-mortem processing: At day 70 after MCAO, rats were anesthetized as described in Example 2, above.
Infarct measurement: Infarct measurement was performed as described in Example 2, above.

SMILES: Nc1ccncc1 [4-AP, 4-aminopyridine]
- Effect on global body control (body swing test) ([1]; Example 2, low (0.63 mg/kg) or high (2 mg/kg) dose b.i.d. p.o., started 4 weeks post MCAO, dose-dependent, reversible): effective to improve global body control; also recorded: significant improvement
- Body swing performance ([1]; Example 17 dose escalation, groups diverged before treatment initiation): no conclusions can be drawn
- Body Swing Test (% right Swing) ([1]; D 44 after MCAO): 39.56%
- Body Swing Test (% right Swing) ([1]; D 46 after MCAO): 40.44%
- Mean infarct volume (%) ([2]; Group 1 (H, L, V)): 45.0 (±1.8) %
- Mean infarct volume (%) ([2]; Group 2 (L, V, H)): 41.4 (±2.3) %
- Mean infarct volume (%) ([2]; Group 3 (V, H, L)): 39.0 (±3.3) %
- Mean (SE) Infarct Volume (%) ([2]; Example 17, 4-AP 0.5, 1 and 2 mg/kg b.i.d. Days 56-65, brains at day 70 after MCAO): 40.0 (2.3) %
